From publication PMC2976784 (Proteins, 2010) come the findings set out here.

In the test the target is T1, YndB (Bacillus subtilis, UniProt O31806).
T1 sequence (O31806 1-144): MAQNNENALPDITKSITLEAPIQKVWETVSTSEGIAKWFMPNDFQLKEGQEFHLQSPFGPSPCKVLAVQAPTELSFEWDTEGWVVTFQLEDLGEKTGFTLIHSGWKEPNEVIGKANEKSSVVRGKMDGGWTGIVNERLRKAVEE
Briefly: 2D 1H-15N HSQC NMR titration, chemical shift perturbation fit. In kind it is binding.
Turning to `O=c1c(O)c(-c2ccccc2)oc2ccccc12` [flavonol], the Kd is 86 ± 16 µM. The value for `O=C(/C=C/c1ccccc1)c1ccccc1` [trans-chalcone] was under 1 µM; that for `O=c1cc(-c2ccccc2)oc2ccccc12` [flavone] was 62 ± 9 µM. In the case of `O=C1CC(c2ccccc2)Oc2ccccc21` (stereo not shown) [flavanone] it was 32 ± 3 µM.
